# What was measured:
# [1] = system: cells containing alveolar macrophages; test: Stimulation with LPS and 25-HC of bronchoalveolar lavage fluid cells from a cigarette smoke-exposed mouse; cytokine mRNA by real-time quantitative PCR; type: cell-based; settings: co-stimulation with LPS (10 ng/ml) and 25-HC (0.3 to 3 μg/ml), 24 hours, compared with LPS alone; FIG. 6
# Protocol: To examine the involvement of CH25H on the morbid state of COPD, the effect of added 25-hydroxycholesterol (25-HC), i.e. CH25H reaction product, on alveolar macrophages was examined. According to the method described in EXAMPLE 4, a mouse was exposed to cigarette smoke for 4 days, and on the next day of the final exposure, the bronchoalveolar lavage fluid was recovered according to the method described in EXAMPLE 4, and cells containing alveolar macrophages were seeded on a 96-well plate at a density of 1×10^6 cells/ml. On the next day, the cells were stimulated with LPS (10 ng/ml) and 25-HC (0.3 to 3 μg/ml) and cultured for 24 hours. According to the method described in EXAMPLE 1, total RNA was then recovered from the cells according to the attached manual, and the amounts of mRNAs of CXCL2 and IL-1β, that is, inflammatory cytokines, were quantified by the real-time quantitative PCR method. As each probe, the corresponding probe was selected from Assays on demand gene expression product (Applied Biosystems) and used. The expression level of each gene was calculated as relative expression value to rodent GAPDH by the comparative Ct value method.
# C57BL/6 mice [2] = test: Production of cytokines in bronchoalveolar lavage fluid after intratracheal administration of 25-HC (ELISA); type: in vivo; settings: 50 μg/50 μl/mouse, 3 hours after administration, vs control, FIG. 7
# Protocol: To examine whether production of cytokines by 25-HC is observed in vivo as well, the effect of 25-HC administered to the lung of a mouse was examined.
# 25-HC or a control (physiological saline containing a solvent at the same concentration as used in dissolving 25-HC (10% aqueous ethanol)) was intratracheally administered at a dose of 50 μg/50 μl/mouse to C57BL/6 mice (6-week-old, male) under anesthesia with halothane, and 3, 6, 12, 24 and 48 hours after administration, the bronchoalveolar lavage fluid was recovered, and the amounts of KC and MIP-2, that is, inflammatory cytokines in the lavage fluid were measured by a commercial ELISA kit.
# C57BL/6 mice [3] = test: Neutrophil infiltration in bronchoalveolar lavage fluid after intratracheal administration of hydroxylated cholesterols; type: in vivo; settings: 50 μg/50 μl/mouse/day for 4 days, lavage on the next day, FIG. 8
# Protocol: To examine whether the airway inflammatory reaction by 25-HC is observed in vivo as well, the effect of 25-HC administered to the lung of a mouse was examined.
# 25-HC or a control (physiological saline containing a solvent at the same concentration as used in dissolving 25-HC (9.5% aqueous ethanol)), or 4β-hydroxycholesterol (4β-HC), was intratracheally administered for 4 days at a dose of 50 μg/50 μl/mouse/day to C57BL/6 mice (7-week-old, male) under anesthesia with ketamine and xylazine, and on the next day, the bronchoalveolar lavage fluid was recovered, and the number of inflammatory cells was determined.
smiles,measurement,setting,value
"C[C@H](CCCC(C)(C)O)[C@H]1CC[C@H]2[C@@H]3CC=C4C[C@@H](O)CC[C@]4(C)[C@H]3CC[C@]12C [25-HC, 25-hydroxycholesterol]","expression of CXCL2 (mRNA, relative to rodent GAPDH)",[1],increased depending on the concentration of 25HC
same,"expression of IL-1β (mRNA, relative to rodent GAPDH)",[1],increased depending on the concentration of 25HC
same,amount of KC in bronchoalveolar lavage fluid,C57BL/6 mice [2],significant increase
same,amount of MIP-2 in bronchoalveolar lavage fluid,C57BL/6 mice [2],significant increase
same,neutrophil infiltration (number of neutrophils in bronchoalveolar lavage fluid),C57BL/6 mice [3],significant neutrophil infiltration was recognized

# Source: patent US7981598B2, “Preventive/remedy for respiratory diseases” (Takeda Pharmaceutical Company Limited, priority 2004, dated 2011)
